In US20250025445A1, “METHOD OF CARDIOPROTECTION” (Race Oncology LTD., priority 2021, published 2025):
Read-outs that look alike come from different tables or passages of the source.

Key:
[1] = tested on: tumor cells from 684 patients; conditions: breast, small cell lung, large cell lung, squamous cell lung, ovarian, pancreatic, renal, adrenal, head and neck, sarcoma, gastric, lymphoma and melanoma tumor cells; cited from earlier work
[2] = tested on: Primary Human Cardiac Myocytes (HCMs); assay: Primary human cardiomyocyte cell viability (CellTiter-Glo); format: cell-based
Description: Primary Human Cardiac Myocytes (HCMs) were purchased from PromoCell® (Heidelberg, Germany) and cultured according to manufacturer's recommendations using PromoCell® Myocyte growth media (5% [v/v] foetal calf serum, 0.5 ng/ml recombinant human epidermal growth factor, 2 ng/ml recombinant human basic fibroblast growth factor, 5 μg/ml recombinant human insulin) supplemented with 1% [v/v] Penicillin-Streptomycin [Sigma-Aldrich]). Briefly, 1×10^6 HCMs were seeded and grown in Corning® T75 flasks (Sigma-Aldrich, New South Wales, Australia) in an incubator at 37° C. under 5% CO2 conditions. At 80-90% confluency, HCMs were gently detached using the DetachKit (PromoCell®), collected into Corning® 50 mL centrifuge tubes (Sigma-Aldrich), and centrifuged at 300×g for 10 mins at room temperature. The resulting supernatant were discarded and HCM pellet was resuspended with 5-10 mL of pre-warmed Myocyte Growth Medium. Total viable cells were enumerated with Invitrogen™ Countess Cell Counter (Thermo Fisher Scientific, New South Wales, Australia) and 1×10^5 live HCMs were seeded in triplicate into Corning® 96-well white polystyrene microplate (Sigma).
Dox, Dauno and Epi, were dissolved in sterile water to make a stock concentration of 20 mM, respectively, while Tz was dissolved in sterile PBS to a stock concentration of 100 μM. […] The concentrations were as follows 0 nM, 15.62 nM, 62.5 nM, 250 nM, 500 nM, 1 μM, 5 μM, and 10 μM. […] Vehicle controls were incubated with media supplemented with either sterile water or DMSO. […] This was repeated at 48 hours and 72 hours. […] Both FB23/2 and brequinar (MedChemExpress) were dissolved in dimethyl sulfoxide (DMSO; Sigma-Aldrich) to make a stock concentration of 40 mM and 20 mM respectively.

[3] = tested on: MDA-MB-231 breast cancer cells; assay: MDA-MB-231 breast cancer cell viability with Webb synergy analysis; format: cell-based, human
Description: Human breast cancer cell line NDA-MB-231 was cultured in a humidified chamber at 37° C. with 5% CO2 in DMEM supplemented with 10% foetal bovine serum (FBS), 2 mM L-glutamine and 2% HEPES. Cells were maintained adherent.

[4] = tested on: H929 multiple myeloma cells; assay: H929 multiple myeloma cell viability (CellTiter-Glo); format: cell-based, human; conditions: 72 hours, FIG. 4
Description: Human multiple myeloma NCI-H929 cells were cultured using RPMI-1640 growth media (Sigma-Aldrich), supplemented with 2 mM L-glutamine (Thermo Fisher Scientific), 10% (v/v) foetal calf serum (Sigma-Aldrich) and 0.05 mM 2-mercaptoethanol (Sigma-Aldrich). Briefly, 0.5×10^6 H929 were seeded and grown in Corning® T75 flasks (Sigma-Aldrich) in an incubator at 37° C. under 5% CO2 conditions. At 80-90% confluency, the cell suspension was then collected into Corning® 50 mL centrifuge tubes (Sigma-Aldrich) and centrifuged at 300×g for 10 mins at room temperature. The resulting supernatant were discarded and H929 pellet was resuspended with 5-10 mL of pre-warmed H929 growth media. Total viable cells were enumerated with Invitrogen™ Countess Cell Counter (Thermo Fisher Scientific, New South Wales, Australia) and 1×10^4 live H929 were seeded in triplicate into Corning® 96-well white polystyrene microplate (Sigma). […] The concentrations were as follows 0 nM, 15.62 nM, 62.5 nM, 250 nM, 500 nM, 1 μM, 5 μM, and 10 μM. […] Vehicle controls were incubated with media supplemented with either sterile water or DMSO. […] This was repeated at 48 hours and 72 hours. […] Both FB23/2 and brequinar (MedChemExpress) were dissolved in dimethyl sulfoxide (DMSO; […]

[5] = Doxorubicin cardiotoxicity in mice: blood tests
Description: (§1) In particular, well established cardiotoxicity markers, including left ventricular fractional shortening, heart E/A ratio, left ventricular diastolic function, left ventricular dilatation, cardiac output, plasma triglyceride levels, plasma creatine kinase-MB (CK-MB), plasma LDH (lactate dehydrogenase) and plasma brain natriuretic peptide (BNP) were monitored over a period of up to 42 days following the start of treatments delivered weekly, four times (and therefore final treatment on day 21).
(§2) Treatments were delivered to mice intravenously on days 0, 7, 14 and 21. Mice underwent echocardiography measurements at days 0, 21 and 42 to determine LVEF, FS, EDV, ESV, CO, E wave, A wave, E′, E/A, and E/E′, and blood samples were taken at days 0, 21 and 42 to assay for cardiac troponin I levels, BNP levels, CK, LDH levels and triglycerides.

[6] = tested on: colon 26, Lewis lung, Ridgway osteosarcoma, B16, Lieberman plasma cell, P388 or L1210 cancer cells; conditions: cited from earlier work
[7] = Doxorubicin cardiotoxicity in mice: histologic cardiac fibrosis; format: in vivo; conditions: bisantrene co-administered with doxorubicin at 1:1 molar ratio; Day 21; relative to matched doses of doxorubicin
Description: as §1, §2

[8] = bisantrene 5.65 mg/kg + doxorubicin 4 mg/kg (Dox+Bis 80% of 1:2)
[9] = bisantrene 3.67 mg/kg + doxorubicin 5 mg/kg (Dox+Bis 1:1)

## C(=NNC1=NCCN1)c1c2ccccc2c(C=NNC2=NCCN2)c2ccccc12 [bisantrene, 9,10-anthracenedicarboxaldehyde bis [(4,5-dihydro-1H-imidazol-2-yl)hydrazone]]
[1]
  activity in clonogenic assays: Activity in clonogenic assays from 684 patients was seen
[2]; 0-5 μM bisantrene with 1 μM carfilzomib, 24, 48, 72 hrs, FIG. 1
  protection of cardiomyocytes against toxicity of CFZ: concentration-dependent protection
[2]; 0-5 μM bisantrene with 1 μM doxorubicin, 24, 48, 72 hrs, FIG. 1
  protection of cardiomyocytes against toxicity of Dox: concentration-dependent protection
[2]; 1 μM bisantrene coadministered with bortezomib, 72 hours, FIG. 7
  rescue of bortezomib cardiomyocyte toxicity: significant rescue of cardiomyocyte toxicity
[2]; 1 μM bisantrene coadministered with carfilzomib, 72 hours, FIG. 7
  rescue of carfilzomib cardiomyocyte toxicity: significant rescue of cardiomyocyte toxicity
[2]; 1 μM bisantrene with 1 μM daunorubicin, 72 hours, FIG. 5
  rescue of daunorubicin cardiotoxicity on cardiomyocytes: cardiotoxicity rescue effects
[2]; 1 μM bisantrene with 1 μM epirubicin, 72 hours, FIG. 6
  rescue of epirubicin cardiotoxicity on cardiomyocytes: a trend toward statistical significance
[2]; 1 or 5 μM bisantrene with 1 μM doxorubicin and 500 nM trastuzumab, FIG. 2
  effect on combined toxicity of doxorubicin and trastuzumab to cardiomyocytes: reduced the combined toxicity
[2]; 1 or 5 μM bisantrene with 1 μM doxorubicin, FIG. 2
  effect of increasing bisantrene on loss of cardiomyocyte viability with doxorubicin alone: reduced loss of viability
[2]; agent alone (1 μM doxorubicin, 1 μM carfilzomib, 0-5 μM bisantrene), 24 hrs, 48 hrs and 72 hrs, FIG. 1
  toxicity (loss in cell viability) to cardiomyocytes: mild progressive toxicity
[3]; bisantrene alone, FIGS. 8 to 10
  toxic effects against MDA-MB-231 breast cancer cells: concentration-dependent toxic effects
[3]; bisantrene with carfilzomib, Webb synergy analysis, FIG. 10C
  combined effect with carfilzomib on MDA-MB-231 cells: at least additive to, if not synergistic with
[3]; bisantrene with doxorubicin, Webb synergy analysis, FIGS. 8, 10A
  combined effect with doxorubicin on MDA-MB-231 cells: at least additive to, if not synergistic with
[3]; bisantrene with epirubicin, Webb synergy analysis, FIGS. 9, 10B
  combined effect with epirubicin on MDA-MB-231 cells: at least additive to, if not synergistic with
[4]; 0-5 μM bisantrene alone
  toxicity to H929 multiple myeloma cells: concentration-dependent toxicity
[4]; 0-5 μM bisantrene with 1 μM carfilzomib
  interference with toxicity of carfilzomib to H929 cells: did not interfere with the toxicity
[5]; bisantrene 3.67 mg/kg + doxorubicin 5 mg/kg (Dox+Bis 1:1), day 21
  plasma CK-MB levels: kept CK-MB levels down at or near the vehicle-only control levels
[5]; bisantrene 3.67 mg/kg + doxorubicin 5 mg/kg (Dox+Bis 1:1), day 21 and day 42
  mitigation of doxorubicin-induced plasma triglyceride increases: significant mitigation
[5]; [8]
  mitigation of doxorubicin-induced plasma triglyceride increases: less effect
[5]; bisantrene 7.33 mg/kg + doxorubicin 5 mg/kg (Dox+Bis 1:2), day 21
  plasma CK-MB levels: kept CK-MB levels down at or near the vehicle-only control levels
[5]; bisantrene 7.33 mg/kg + doxorubicin 5 mg/kg (Dox+Bis 1:2), day 42
  mitigation of doxorubicin-induced plasma triglyceride increases: significant mitigation
[5]; bisantrene 7.33 mg/kg + doxorubicin 5 mg/kg (Dox: Bis 1:2), day 42 or day 21
  brain natriuretic peptide levels (mitigation of doxorubicin effects): not significant
[5]; bisantrene 7.33 mg/kg alone, day 21, vs vehicle-only control
  plasma triglycerides: slight (but insignificant) increase
[5]; bisantrene 7.33 mg/kg alone, day 42, vs vehicle-only control
  plasma triglycerides (increase): not at day 42
[9]
  mitigation of doxorubicin cardiotoxicity: cardiac output: mitigation of doxorubicin cardiotoxicity
  mitigation of doxorubicin cardiotoxicity: left ventricular diastolic function: appeared to mitigate the cardiotoxic effects
  mitigation of doxorubicin cardiotoxicity: left ventricular dilatation: appeared to mitigate the cardiotoxic effects
  mitigation of doxorubicin cardiotoxicity: left ventricular fractional shortening: significantly mitigated
[8]
  mitigation of doxorubicin cardiotoxicity: cardiac output: even less effect
  mitigation of doxorubicin cardiotoxicity: left ventricular fractional shortening: less effect
Bisantrene 7.33 mg/kg + doxorubicin 5 mg/kg (Dox+Bis 1:2)
  mitigation of doxorubicin cardiotoxicity: left ventricular fractional shortening: significantly mitigated
Bisantrene 7.33 mg/kg + doxorubicin 5 mg/kg (Dox+Bis 1:2), compared to Dox+Bis 1:1
  mitigation of doxorubicin cardiotoxicity: cardiac output: mitigation of doxorubicin cardiotoxicity was slightly greater
Bisantrene 7.33 mg/kg alone
  cardiac output: suggestion (but not significant) of mild deleterious effects
  left ventricular diastolic function: suggestion (but not significant) of mild deleterious effects
  left ventricular dilatation: suggestion (but not significant) of mild deleterious effects
Bisantrene 7.33 mg/kg alone, i.v. days 0, 7, 14, 21
  left ventricular fractional shortening: suggestion (but not significant) of mild deleterious effects
[6]
  effectiveness in cancer models: effective
[7]
  histologic cardiac fibrosis: significantly decreased
